Source: EP0593348A1, “Thiazolidine dione derivatives, process for their preparation and pharmaceutical compositions containing them” (ADIR ET COMPAGNIE, priority 1992, dated 1994)
Read-outs that look alike come from different tables or passages of the source. One block for each compound: values may come before it.

How the values were obtained:
souris ob/ob = test: Hypoglycaemic activity in a non-insulin-dependent diabetes (NIDDM) model, ob/ob mice; format: in vivo; settings: oral, 4 days, base 100, reached at the dose given
Excerpt: A/ Etude de l'activité des composés de l'invention sur un modèle de diabète non insulino-dépendant (NIDDM).
Les animaux (souris ob/ob) sont traités chaque jour, pendant 4 jours, en administrant par voie orale, les composés de l'invention en suspension dans une solution à 20 % de gomme du Sénégal. Avant et après traitement, soit à J0 et à J5, le sang est prélevé par ponction du sinus orbital et la glycémie est déterminée. Le tableau 1 présente les doses des différents produits à administrer pour obtenir le même effet hypoglycémiant (base 100).

rats Zucker Fa/Fa mâles = test: Model of reduced glucose tolerance with hyperinsulinaemia and hyperlipaemia, male Zucker Fa/Fa rats; format: in vivo; settings: 5 mg/kg/jour oral for 10 days; for Glycémie (%) / Plasma insuline (%): blood on day 11, control = 100; for Poids ΔP% J₁₁-J₁: control = +100; for AGL (%): plasma free fatty acids; for AGL (%) / TG (%): control = 100; for TG (%): plasma triglycerides
Procedure: B/ Etude de l'activité des composés de l'invention sur un modèle de tolérance au glucose diminuée associée à une hyperinsulinémie et une hyperlipémie .
Les animaux (rats Zucker Fa/Fa mâles) sont traités, chaque jour, pendant 10 jours, en administrant, par voie orale, les composés de l'invention à la dose de 5 mg/kg/jour en suspension dans une solution à 20 % de gomme du Sénégal. Le 11ème jour, les animaux sont sacrifiés et le sang recueilli afin de déterminer la glycémie, les triglycérides plasmatiques et l'insuline immuno-réactive. D'autre part, les animaux sont pesés avant et après traitement.
Dans ces conditions, les composés de l'invention n'ont pas d'influence sur le taux de glucose circulant mais diminuent le taux de triglycérides (TG) et d'acides gras libres plasmatiques (AGL) ainsi que celui de l'insuline immuno-réactive. Cette activité est égale ou supérieure à celle d'autres dérivés de thiazolidinedione de référence.

rats SDCD mâles = settings: rat, in vivo
Excerpt: Administrés per os à des rats SDCD mâles pesant 175 g les produits sont sans effet sur les éléments figurés du sang et le volume plasmatique, à la différence de la pioglitazone : […]

Structure (SMILES): O=C1NC(=O)C(Cc2ccc(CCNC(=O)c3ccccc3O)cc2)S1 (racemic) [Exemple 3, (R,S) 5-{4-[2-(salicyloyamino) éthyl]benzyl} thiazolidine-2,4-dione]
- Pouvoir hypoglycémiant (souris ob/ob): 100

Structure (SMILES): O=C(CC(c1ccccc1)c1ccccc1)NCCc1ccc(CC2SC(=O)NC2=O)cc1 (racemic) [Exemple 6, (R,S) 5-{4-[2-(3,3-diphénylpropionamido)éthyl]benzyl}thiazolidine-2,4-dione]
- Pouvoir hypoglycémiant (souris ob/ob): 100

Structure (SMILES): COc1ccc(OC)c(C(=O)NCCc2ccc(CC3SC(=O)NC3=O)cc2)c1 (racemic) [Exemple 7, (R,S) 5-{4-[2-(2,5-diméthoxybenzamido)éthyl]benzyl}thiazolidine-2,4-dione]
- Pouvoir hypoglycémiant (souris ob/ob): 100

Structure (SMILES): O=C1NC(=O)C(Cc2ccc(CCNC(=O)c3ccco3)cc2)S1 (racemic) [Exemple 14, (R,S) 5-{4-[2-(fur-2-ylcarbonylamino)éthyl]benzyl}thiazolidine-2,4-dione]
- Pouvoir hypoglycémiant (souris ob/ob): 100

Structure (SMILES): Cc1cc(C(=O)NCCc2ccc(CC3SC(=O)NC3=O)cc2)no1 (racemic) [Exemple 15, (R,S) 5-{4-[2-(5-méthyl 1,2-oxazol-3-ylcarbonylamino)éthyl]benzyl} thiazolidine-2,4-dione]
- Pouvoir hypoglycémiant (souris ob/ob): 100

Structure (SMILES): O=C1NC(=O)C(Cc2ccc(CCNC(=O)c3cnccn3)cc2)S1 (racemic) [Exemple 25, (R,S) 5-{4-[2-(pyrazin-2-ylcarbonylamino)éthyl]benzyl}thiazolidine-2,4-dione]
- Pouvoir hypoglycémiant (souris ob/ob): 100

Structure (SMILES): CN(C)c1ccccc1C(=O)NCCc1ccc(CC2SC(=O)NC2=O)cc1 (racemic) [Exemple 28, (R,S) 5-{4-[2-(2-diméthylaminobenzamido)éthyl]benzyl}thiazolidine-2,4-dione]
- Pouvoir hypoglycémiant (souris ob/ob): 100
- Glycémie (%) (rats Zucker Fa/Fa mâles): 99%
- Plasma insuline (%) (rats Zucker Fa/Fa mâles): 75%
- Poids ΔP% J₁₁-J₁ (rats Zucker Fa/Fa mâles): +103%
- AGL (%) (rats Zucker Fa/Fa mâles): 110%
- TG (%) (rats Zucker Fa/Fa mâles): 89%

Structure (SMILES): COc1ccc(Cl)cc1C(=O)NCCCc1ccc(CC2SC(=O)NC2=O)cc1 (racemic) [Exemple 33, (R,S) 5-{4-[3-(2-méthoxy-5-chlorobenzamido)propyl]benzyl}thiazolidine-2,4-dione]
- Pouvoir hypoglycémiant (souris ob/ob): 100

Structure (SMILES): O=C1NC(=O)C(Cc2ccc(CCNC(=O)c3cccs3)cc2)S1 (racemic) [Exemple 35, (R,S) 5-{4-[2-(thién-2-ylcarbonylamino)éthyl]benzyl}thiazolidine-2,4-dione]
- Pouvoir hypoglycémiant (souris ob/ob): 100

Structure (SMILES): COc1ccc(Cl)cc1C(=O)NCc1ccc(CC2SC(=O)NC2=O)cc1 (racemic) [Exemple 36, (R,S) 5-{4-[(5-chloro-2-méthoxybenzamido)méthyl]benzyl}thiazolidine-2,4-dione]
- Pouvoir hypoglycémiant (souris ob/ob): 100

Structure (SMILES): CC(C)(C)c1cc(OCCc2ccc(CC3SC(=O)NC3=O)cc2)cc(C(C)(C)C)c1O (racemic) [Exemple 41, (R,S) 5-{4-[2-(3,5-di-tert-butyl-4-hydroxyphénoxy)éthyl]benzyl} thiazolidine-2,4-dione]
- Pouvoir hypoglycémiant (souris ob/ob): 100

Structure (SMILES): COc1ccc(C=CC(=O)NCCc2ccc(CC3SC(=O)NC3=O)cc2)cc1OC (racemic) [Exemple 43, (R,S) 5-{4-[2-(3-(3,4-diméthoxyphényl)prop-2-énoylamino)éthyl]benzyl} thiazolidine-2,4-dione]
- Pouvoir hypoglycémiant (souris ob/ob): 100

Structure (SMILES): O=C(C=Cc1ccc2c(c1)OCO2)NCCc1ccc(CC2SC(=O)NC2=O)cc1 (racemic) [Exemple 44, (R,S) 5-{4-[2-(3-(3,4-méthylènedioxyphényl)prop-2-énoylamino)éthyl]benzyl} thiazolidine-2,4-dione]
- Pouvoir hypoglycémiant (souris ob/ob): 100

Structure (SMILES): O=C1NC(=O)C(Cc2ccc(CCNC(=O)C3c4ccccc4Oc4ccccc43)cc2)S1 (racemic) [Exemple 45, (R,S) 5-{4-[2-(xanthén-9-ylcarbonylamino)éthyl]benzyl}thiazolidine-2,4-dione]
- Pouvoir hypoglycémiant (souris ob/ob): 100

Structure (SMILES): Cc1cccc(C)c1C(C(=O)NCCc1ccc(CC2SC(=O)NC2=O)cc1)c1c(C)cccc1C (racemic) [Exemple 46, (R,S) 5-{4-[2-(2,2-bis(2,6-diméthylphényl)acétylamino)éthyl]benzyl} thiazolidine-2,4-dione]
- Pouvoir hypoglycémiant (souris ob/ob): 100

Structure (SMILES): CC1(COc2ccc(CC3SC(=O)NC3=O)cc2)CCCCC1 (stereo not drawn) [Ciglitazone, reference compound]
- Pouvoir hypoglycémiant (souris ob/ob): 100

- Globules blancs (rats SDCD mâles; 100 mg/kg): - 6%
- Globules rouges (rats SDCD mâles; 100 mg/kg): - 2%
- Hématocrite (rats SDCD mâles; 100 mg/kg): + 11%
- Hémoglobine (rats SDCD mâles; 100 mg/kg): + 11%
- Globules blancs (rats SDCD mâles; 250 mg/kg): - 4%
- Globules rouges (rats SDCD mâles; 250 mg/kg): - 11%
- Hématocrite (rats SDCD mâles; 250 mg/kg): + 4%
- Hémoglobine (rats SDCD mâles; 250 mg/kg): + 4%
Structure (SMILES): COc1ccc(Cl)cc1C(=O)NCCc1ccc(CC2SC(=O)NC2=O)cc1 (stereo not drawn) [Exemple 1, 5-{4-[2-(2-méthoxy 5-chlorobenzamido) éthyl]benzyl} thiazolidine 2,4-dione]
- Pouvoir hypoglycémiant (souris ob/ob): 100
- Glycémie (%) (rats Zucker Fa/Fa mâles): 113%
- Plasma insuline (%) (rats Zucker Fa/Fa mâles): 71%
- Poids ΔP% J₁₁-J₁ (rats Zucker Fa/Fa mâles): +112%
- AGL (%) (rats Zucker Fa/Fa mâles): 83%
- TG (%) (rats Zucker Fa/Fa mâles): 94%

Structure (SMILES): O=C1NC(=O)C(Cc2ccc(CCN3C(=O)c4ccccc4C3=O)cc2)S1 (stereo not drawn) [Exemple 4, 5-{4-[2-(phtalimido)éthyl]benzyl}thiazolidine-2,4-dione]
- Pouvoir hypoglycémiant (souris ob/ob): 100
- Glycémie (%) (rats Zucker Fa/Fa mâles): 108%
- Plasma insuline (%) (rats Zucker Fa/Fa mâles): 72%
- Poids ΔP% J₁₁-J₁ (rats Zucker Fa/Fa mâles): +132%
- AGL (%) (rats Zucker Fa/Fa mâles): 108%
- TG (%) (rats Zucker Fa/Fa mâles): 78%

Structure (SMILES): COc1ccc(Cl)cc1C(=O)NC[C@@H](O)c1ccc(C[C@H]2SC(=O)NC2=O)cc1 [Exemple 40, (R,S) 5-{4-[1-hydroxy-2-(5-chloro-2-méthoxybenzamido)éthyl]benzyl} thiazolidine-2,4-dione]
- Pouvoir hypoglycémiant (souris ob/ob): 100

- Globules blancs (rats SDCD mâles; 100 mg/kg): - 46%
- Globules rouges (rats SDCD mâles; 100 mg/kg): - 37%
- Hématocrite (rats SDCD mâles; 100 mg/kg): - 26%
- Hémoglobine (rats SDCD mâles; 100 mg/kg): - 29%
Structure (SMILES): CCc1ccc(CCOc2ccc(CC3SC(=O)NC3=O)cc2)nc1 (stereo not drawn) [Pioglitazone, reference compound]
- Glycémie (%) (rats Zucker Fa/Fa mâles): 115%
- Plasma insuline (%) (rats Zucker Fa/Fa mâles): 49%
- Poids ΔP% J₁₁-J₁ (rats Zucker Fa/Fa mâles): +320%
- AGL (%) (rats Zucker Fa/Fa mâles): 57%
- TG (%) (rats Zucker Fa/Fa mâles): 35%
